Assay results taken from patent publication US20220144815A1, “1,3,4-OXADIAZOLES AND THEIR DERIVATIVES AS NEW ANTIFUNGAL AGENTS” (Bayer Aktiengesellschaft, priority 2018, published 2022).
Like-named read-outs stand apart in the source and are kept apart here.

What was measured:
[1] = system: Colletotrichum lindemuthianum; test: Example B: in vitro cell test, spore germination and mycelium growth in liquid culture; format: cell-based; settings: 144 h, 20 ppm of tested compound, 6 days incubation, read-out: efficacy (inhibition of fungal growth)
Method: • Solvent: dimethyl sulfoxide Culture medium: 14.6 g anhydrous D-glucose (VWR), • 7.1 g mycological peptone (Oxoid), • 1.4 g granulated yeast extract (Merck), QSP 1 liter Inoculum: spore suspension The tested compounds were solubilized in dimethyl sulfoxide and the solution used to prepare the required range of concentrations. The final concentration of dimethyl sulfoxide used in the assay was ≤1%. A spore suspension of Colletotrichum lindemuthianum was prepared and diluted to the desired spore density. The compounds were evaluated for their ability to inhibit spore germination and mycelium growth in liquid culture assay. The compounds were added in the desired concentration to the culture medium with spores. After 6 days incubation, fungi-toxicity of compounds was determined by spectrometric measurement of mycelium growth. Inhibition of fungal growth was determined by comparing the absorbance values in wells containing the tested compounds with the absorbance in control wells without tested compounds.

[2] = Log P by HPLC on reversed phase columns, method [a] (EEC directive 79/831 Annex V.A8); format: physicochemical; settings: for chromatographic logP: reversed phase HPLC column, read-out: logP
Method in brief: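 Log P calibrated with C3–C16 straight-chain alkan-2-ones of known Log P, interpolating linearly between retention times. Method per EEC 79/831 Annex V.A8: reversed-phase LC-UV in the acidic range, water/0.1% formic acid and acetonitrile gradient from 10% to 95% acetonitrile.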

[3] = log P determined according to method [a] (HPLC on reversed phase columns)
[4] = method [a], HPLC on reversed phase columns

C#CCNc1ncc(-c2nnc(C(F)F)o2)cn1 [I.063, 5-[5-(difluoromethyl)-1,3,4-oxadiazol-2-yl]-N-(prop-2-yn-1-yl)pyrimidin-2-amine]
inhibition of growth at 20 µg/mL [1]: 90 to 100%

N#Cc1ccc(C2(Nc3ncc(-c4nnc(C(F)F)o4)cn3)CC2)cc1 [I.152, 4-[1-({5-[5-(difluoromethyl)-1,3,4-oxadiazol-2-yl]pyrimidin-2-yl}amino)cyclopropyl]benzonitrile]
chromatographic logP [2, 3]: 2.33 | inhibition of growth at 20 µg/mL [1]: 90 to 100%

Fc1ccc(CNc2ncc(-c3nnc(C(F)F)o3)cn2)cc1 [I.112, 5-[5-(difluoromethyl)-1,3,4-oxadiazol-2-yl]-N-(4-fluorobenzyl)pyrimidin-2-amine]
chromatographic logP [2, 3]: 2.64 | inhibition of growth at 20 µg/mL [1]: 70 to 79%

FC(F)(F)c1nnc(-c2cnc(NC3(c4ccccc4)CCC3)nc2)s1 [I.173, N-(1-phenylcyclobutyl)-5-[5-(trifluoromethyl)-1,3,4-thiadiazol-2-yl]pyrimidin-2-amine]
chromatographic logP [2, 4]: 4.12 | inhibition of growth at 20 µg/mL [1]: 80 to 89%

CON(Cc1ccc(Cl)cc1)c1ncc(-c2nnc(C(F)F)o2)cn1 [I.169, N-(4-chlorobenzyl)-N-{5-[5-(difluoromethyl)-1,3,4-oxadiazol-2-yl]pyrimidin-2-yl}-O-methylhydroxylamine]
chromatographic logP [2, 3]: 3.31 | inhibition of growth at 20 µg/mL [1]: 80 to 89%

COc1ccc(-c2ncc(-c3nnc(C(F)F)o3)cn2)cc1 [I.089, 5-[5-(difluoromethyl)-1,3,4-oxadiazol-2-yl]-2-(4-methoxyphenyl)pyrimidine]
inhibition of growth at 20 µg/mL [1]: 90 to 100%

FC(F)c1nnc(-c2cnc(NCC3CC3)nc2)o1 [I.067, N-(cyclopropylmethyl)-5-[5-(difluoromethyl)-1,3,4-oxadiazol-2-yl]pyrimidin-2-amine]
inhibition of growth at 20 µg/mL [1]: 80 to 89%

FC(F)c1nnc(-c2cnc(Cl)nc2)o1 [I.061, 2-chloro-5-[5-(difluoromethyl)-1,3,4-oxadiazol-2-yl]pyrimidine]
inhibition of growth at 20 µg/mL [1]: 90 to 100%

COC(=O)C(Nc1ncc(-c2nnc(C(F)F)o2)cn1)c1ccccn1 (stereo not drawn) [I.222, methyl ({5-[5-(difluoromethyl)-1,3,4-oxadiazol-2-yl]pyrimidin-2-yl}amino)(pyridin-2-yl)acetate]
chromatographic logP [2, 4]: 1.92

COc1cccc(C2(Nc3ncc(-c4nnc(C(F)F)o4)cn3)CC2)c1F [I.236, 5-[5-(difluoromethyl)-1,3,4-oxadiazol-2-yl]-N-[1-(2-fluoro-3-methoxyphenyl)cyclopropyl]pyrimidin-2-amine]
chromatographic logP [2, 4]: 2.81

FC(F)c1nnc(-c2cnc(NC3(c4ccc(C(F)(F)F)cc4)CCCC3)nc2)o1 [I.266, 5-[5-(difluoromethyl)-1,3,4-oxadiazol-2-yl]-N-{1-[4-(trifluoromethyl)phenyl]cyclopentyl}pyrimidin-2-amine]
chromatographic logP [2, 4]: 4.16

CC(C)C1(Nc2ncc(-c3nnc(C(F)F)o3)cn2)CC1 [I.187, 5-[5-(difluoromethyl)-1,3,4-oxadiazol-2-yl]-N-(1-isopropylcyclopropyl)pyrimidin-2-amine]
chromatographic logP [2, 4]: 2.65

FC(F)c1nnc(-c2ccc(Oc3ccccc3)nc2)o1 [Example I-043]
logP [2, 3]: 2.90

O=C(Nc1ccccc1)Nc1ccc(-c2nnc(C(F)F)o2)cn1 [Example I-051]
logP [2, 3]: 2.57

CCOC(=O)C1(Nc2ncc(-c3nnc(C(F)F)o3)cn2)CC1 [I.117, ethyl 1-({5-[5-(difluoromethyl)-1,3,4-oxadiazol-2-yl]pyrimidin-2-yl}amino)cyclopropanecarboxylate]
chromatographic logP [2, 3]: 1.94

Fc1ccccc1CNc1ncc(-c2nnc(C(F)F)o2)cn1 [I.111, 5-[5-(difluoromethyl)-1,3,4-oxadiazol-2-yl]-N-(2-fluorobenzyl)pyrimidin-2-amine]
chromatographic logP [2, 3]: 2.62

O=C(Nc1ccc(-c2nnc(C(F)F)o2)cc1)C(F)F [Example I-012]
logP [2, 3]: 2.01

FC(F)c1nnc(-c2cnc(NC3(c4cccc(Cl)c4)CC3)nc2)o1 [I.227, N-[1-(3-chlorophenyl)cyclopropyl]-5-[5-(difluoromethyl)-1,3,4-oxadiazol-2-yl]pyrimidin-2-amine]
chromatographic logP [2, 4]: 3.11

C[C@H](Nc1ncc(-c2nnc(C(F)F)o2)cn1)c1ccc(F)cc1 [I.125b, 5-[5-(difluoromethyl)-1,3,4-oxadiazol-2-yl]-N-[(1S)-1-(4-fluorophenyl)ethyl]pyrimidin-2-amine]
chromatographic logP [2, 3]: 2.85

CC(CNc1ncc(-c2nnc(C(F)F)o2)cn1)c1ccc(F)cc1 (racemic) [I.211, 5-[5-(difluoromethyl)-1,3,4-oxadiazol-2-yl]-N-[(2RS)-2-(4-fluorophenyl)propyl]pyrimidin-2-amine]
chromatographic logP [2, 4]: 3.13

CC(Nc1ncc(-c2nnc(C(F)F)o2)cn1)c1c(F)cccc1F (racemic) [I.151, 5-[5-(difluoromethyl)-1,3,4-oxadiazol-2-yl]-N-[(1RS)-1-(2,6-difluorophenyl)ethyl]pyrimidin-2-amine]
chromatographic logP [2, 3]: 3.1

CC1(NC(=O)c2ccc(-c3nnc(C(F)F)o3)cn2)CC1 [Example I-044]
logP [2, 3]: 2.02

Fc1ccccc1C1(Nc2ncc(-c3nnc(C(F)(F)F)s3)cn2)CC1 [I.178, N-[1-(2-fluorophenyl)cyclopropyl]-5-[5-(trifluoromethyl)-1,3,4-thiadiazol-2-yl]pyrimidin-2-amine]
chromatographic logP [2, 4]: 3.79

COC(=O)c1ccc(-c2nnc(C(F)(F)F)s2)cc1 [Example I-011]
logP [2, 3]: 3.23

CON(c1ncc(-c2nnc(C(F)F)o2)cn1)C(C)c1cccc(C(F)(F)F)c1 (racemic) [I.184, N-{5-[5-(difluoromethyl)-1,3,4-oxadiazol-2-yl]pyrimidin-2-yl}-O-methyl-N-{(1RS)-1-[3-(trifluoromethyl)phenyl]ethyl}hydroxylamine]
chromatographic logP [2, 4]: 3.94

CCC(Nc1ncc(-c2nnc(C(F)F)o2)cn1)c1ccccc1Br (racemic) [I.260, N-[(1RS)-1-(2-bromophenyl)propyl]-5-[5-(difluoromethyl)-1,3,4-oxadiazol-2-yl]pyrimidin-2-amine]
chromatographic logP [2, 4]: 3.64

FC(F)c1nnc(-c2ccc(N3CCCCC3)nc2)o1 [Example I-040]
logP [2, 3]: 2.72

Cc1cccc(C)c1C1(Nc2ncc(-c3nnc(C(F)F)o3)cn2)CC1 [I.216, 5-[5-(difluoromethyl)-1,3,4-oxadiazol-2-yl]-N-[1-(2,6-dimethylphenyl)cyclopropyl]pyrimidin-2-amine]
chromatographic logP [2, 4]: 3.8

FC(F)c1nnc(-c2cnc(NC3(c4ccc(Cl)cc4)CC3)nc2)o1 [I.226, N-[1-(4-chlorophenyl)cyclopropyl]-5-[5-(difluoromethyl)-1,3,4-oxadiazol-2-yl]pyrimidin-2-amine]
chromatographic logP [2, 4]: 3.16

Fc1cccc(F)c1C1(Oc2ncc(-c3nnc(C(F)F)o3)cn2)CC1 [I.167, 5-[5-(difluoromethyl)-1,3,4-oxadiazol-2-yl]-2-{[1-(2,6-difluorophenyl)cyclopropyl]oxy}pyrimidine]
chromatographic logP [2, 3]: 3.25

Fc1ccccc1C1(Nc2ccc(-c3nnc(C(F)F)o3)cc2)CC1 [I.025, 4-[5-(difluoromethyl)-1,3,4-oxadiazol-2-yl]-N-[1-(2-fluorophenyl)cyclopropyl]aniline]
inhibition of growth at 20 µg/mL [1]: 80 to 89%

O=C(Cc1ccccc1)Nc1ccc(-c2nnc(C(F)F)o2)cn1 [Example I-050]
logP [2, 3]: 2.54
